# Values quoted from earlier work, collected in patent US20070122363A1, “CORPOREAL DELIVERY OF CAROTENOIDS” (priority 2005, published 2007).
# Conditions: 50 mg daily, about 22,000 male physicians, versus placebo
compound,measurement,value
"CC1=C(/C=C/C(C)=C/C=C/C(C)=C/C=C/C=C(C)/C=C/C=C(C)/C=C/C2=C(C)CCCC2(C)C)C(C)(C)CCC1 [beta-carotene, beta, beta-carotene]",adverse health effects,no adverse health effects
